{"source": "patent US11198731B2", "about": "(Exelixis, Inc., priority 2017, dated 2021)", "key": {"[1]": {"test_system": "MC38-CEA tumor", "conditions": "mouse, in vivo; cited from earlier work"}, "[2]": {"target": "T1, CYP3A4 (Homo sapiens, UniProt P08684)", "assay": "Clinical pharmacology study XL184-007 with the strong CYP3A4 inhibitor ketoconazole", "type": "in vivo", "set-up": "endogenous in cells; host or cells: healthy volunteers, in vivo", "conditions": "concurrent ketoconazole; single dose of cabozantinib in healthy volunteers"}, "[3]": {"assay": "Effect of proton pump inhibitor esomeprazole on cabozantinib plasma PK", "type": "in vivo, human", "conditions": "healthy volunteers"}, "[4]": {"target": "T1, CYP3A4", "assay": "Clinical pharmacology study XL184-006 with the strong CYP3A4 inducer rifampin", "type": "in vivo", "set-up": "endogenous in cells; host or cells: healthy volunteers, in vivo", "conditions": "concurrent rifampin; single dose of cabozantinib in healthy volunteers"}, "[5]": {"test_system": "CYP1A1", "assay": "In vitro induction of cytochrome P450 enzymes", "type": "in vitro ADME", "conditions": "high cabozantinib concentrations (30 μM)"}, "[6]": {"target": "T1, CYP3A4", "assay": "In vitro CYP substrate studies", "type": "in vitro ADME"}, "[7]": {"target": "CYP2C9 (Homo sapiens, UniProt P11712)", "sequence (P11712 whole entry, species assumed)": "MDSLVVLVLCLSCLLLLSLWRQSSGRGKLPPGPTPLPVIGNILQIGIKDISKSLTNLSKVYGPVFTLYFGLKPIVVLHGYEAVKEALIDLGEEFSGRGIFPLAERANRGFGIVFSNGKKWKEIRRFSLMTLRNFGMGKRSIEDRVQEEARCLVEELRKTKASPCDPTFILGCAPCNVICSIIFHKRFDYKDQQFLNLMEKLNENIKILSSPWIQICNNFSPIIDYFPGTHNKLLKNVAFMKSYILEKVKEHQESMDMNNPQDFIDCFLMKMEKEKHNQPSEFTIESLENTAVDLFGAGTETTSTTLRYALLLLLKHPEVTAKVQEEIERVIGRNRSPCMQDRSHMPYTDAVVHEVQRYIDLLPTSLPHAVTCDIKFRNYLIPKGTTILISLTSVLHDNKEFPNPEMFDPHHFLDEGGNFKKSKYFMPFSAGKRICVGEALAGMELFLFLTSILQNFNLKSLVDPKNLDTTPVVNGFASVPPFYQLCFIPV", "assay": "In vitro CYP substrate studies", "type": "in vitro ADME"}, "[8]": {"test_system": "advanced NSCLC", "conditions": "cited from earlier work"}, "[9]": {"test_system": "advanced RCC after prior VEGFR-TKI", "conditions": "cited from earlier work"}, "[10]": {"test_system": "NSCLC without EGFR genetic alterations", "conditions": "cited from earlier work"}, "[11]": {"test_system": "advanced CRPC with bone metastases", "conditions": "cited from earlier work"}, "[12]": {"test_system": "previously-untreated advanced RCC of intermediate- or poor-risk", "conditions": "cited from earlier work"}, "[13]": {"test_system": "murine colon carcinoma cell line (MC38-CEA)", "conditions": "in vitro; cited from earlier work"}, "[14]": {"assay": "Nonclinical GLP-compliant toxicology studies", "type": "in vivo", "from_the_text": "The development of any new or progressive, unexplained neurological symptoms should be assessed for underlying causes."}, "[15]": {"assay": "Time to steady state exposure of cabozantinib", "type": "in vivo, human", "conditions": "following first dose", "from_the_text": "Events that generally have an early onset include hypocalcemia, hypokalemia, thrombocytopenia, hypertension, PPE, abdominal pain, mucosal inflammation, constipation, diarrhea, and vomiting. Adverse events should be managed with supportive car at the earliest signs of toxicity. Dose reductions and treatment interruptions should be considered. Dose reductions are recommended for events that, if persistent, could become serious or intolerable (Table 6-3)."}, "[16]": {"test_system": "relapsed or refractory metastatic UC", "conditions": "cited from earlier work"}, "[17]": {"test_system": "subjects with medullary thyroid cancer (MTC)", "assay": "Placebo-controlled study of cabozantinib effect on QTc interval", "type": "in vivo, human", "from_the_text": "A concentration-QTc relationship could not be definitively established. Changes in cardiac wave form morphology or new rhythms were not observed."}, "[18]": {"test_system": "advanced RET-rearranged NSCLC", "conditions": "cited from earlier work"}, "[19]": {"test_system": "cytochrome P450 enzymes", "assay": "In vitro induction of cytochrome P450 enzymes", "type": "in vitro ADME"}, "[20]": {"test_system": "metastatic triple-negative breast cancer", "conditions": "in vivo; cited from earlier work"}, "[21]": {"test_system": "CYP2D6, CYP2C8, CYP2C19, CYP2B6, or CYP1A2", "conditions": "human"}, "[22]": {"test_system": "human plasma proteins", "assay": "Plasma protein binding", "type": "in vitro ADME"}, "[23]": {"test_system": "invasive prostate cancer", "conditions": "through a neutrophil mediated anticancer innate immune response; cited from earlier work"}, "[24]": {"target": "P-glycoprotein (Homo sapiens, UniProt P08183)", "sequence (P08183 whole entry)": "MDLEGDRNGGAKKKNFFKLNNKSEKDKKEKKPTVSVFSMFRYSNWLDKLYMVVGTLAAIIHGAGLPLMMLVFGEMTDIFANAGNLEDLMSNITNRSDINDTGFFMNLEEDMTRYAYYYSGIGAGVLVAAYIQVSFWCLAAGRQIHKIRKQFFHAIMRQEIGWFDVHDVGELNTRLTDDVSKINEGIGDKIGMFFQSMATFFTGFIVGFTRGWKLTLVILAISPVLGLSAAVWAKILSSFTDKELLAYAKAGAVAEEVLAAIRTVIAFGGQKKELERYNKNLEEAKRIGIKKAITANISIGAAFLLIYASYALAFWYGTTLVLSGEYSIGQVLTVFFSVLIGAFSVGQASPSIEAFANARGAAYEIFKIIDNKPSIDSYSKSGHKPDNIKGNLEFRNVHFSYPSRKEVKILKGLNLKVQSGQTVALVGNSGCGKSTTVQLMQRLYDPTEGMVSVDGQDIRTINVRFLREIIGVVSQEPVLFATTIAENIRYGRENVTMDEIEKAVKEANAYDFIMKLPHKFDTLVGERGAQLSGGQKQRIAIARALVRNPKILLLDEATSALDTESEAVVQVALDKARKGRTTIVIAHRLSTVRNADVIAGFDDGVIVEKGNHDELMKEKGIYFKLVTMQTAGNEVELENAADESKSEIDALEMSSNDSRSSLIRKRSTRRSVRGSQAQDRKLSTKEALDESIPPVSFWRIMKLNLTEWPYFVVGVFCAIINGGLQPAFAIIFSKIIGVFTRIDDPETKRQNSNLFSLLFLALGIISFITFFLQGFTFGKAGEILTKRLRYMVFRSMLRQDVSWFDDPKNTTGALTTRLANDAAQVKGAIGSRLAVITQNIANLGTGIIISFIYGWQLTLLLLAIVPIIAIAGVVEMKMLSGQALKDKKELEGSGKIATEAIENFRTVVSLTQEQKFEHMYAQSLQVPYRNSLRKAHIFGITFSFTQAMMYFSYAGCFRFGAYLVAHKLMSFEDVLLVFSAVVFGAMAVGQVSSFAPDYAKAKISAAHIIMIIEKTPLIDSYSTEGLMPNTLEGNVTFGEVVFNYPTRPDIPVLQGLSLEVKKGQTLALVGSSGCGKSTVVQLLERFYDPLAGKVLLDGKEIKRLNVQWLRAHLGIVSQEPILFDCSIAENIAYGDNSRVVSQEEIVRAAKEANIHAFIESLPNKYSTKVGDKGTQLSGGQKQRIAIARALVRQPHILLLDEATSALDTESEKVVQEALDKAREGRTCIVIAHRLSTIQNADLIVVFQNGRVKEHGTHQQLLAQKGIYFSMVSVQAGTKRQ", "assay": "In vitro P-glycoprotein substrate and inhibition data", "type": "in vitro ADME"}, "[25]": {"assay": "Food effect on cabozantinib exposure", "conditions": "in vivo"}, "[26]": {"conditions": "Cohort 1, 42 evaluable subjects"}}}
{"smiles": "COc1cc2nccc(Oc3ccc(NC(=O)C4(C(=O)Nc5ccc(F)cc5)CC4)cc3)c2cc1OC", "note": "[cabozantinib, N-(4-{[6,7-bis(methyloxy)quinolin-4-yl]oxy}phenyl)-N′-(4-fluorophenyl)cyclopropane-1,1-dicarboxamide]", "values": [{"measurement": "Peripheral CD8+ T-cell counts", "setting": "[1]", "value": "increased"}, {"measurement": "Regulatory T-cells (Tregs) and myeloid-derived suppressor cells (MDSCs)", "setting": "[1]", "value": "decreased"}, {"measurement": "Treg suppressor activity", "setting": "[1]", "value": "decreased"}, {"measurement": "Increase in cabozantinib exposure (AUC values)", "setting": "[2]", "value": 38, "unit": "%"}, {"measurement": "Effect of esomeprazole on cabozantinib plasma PK", "setting": "[3]", "value": "no clinically-relevant effect"}, {"measurement": "Reduction in cabozantinib exposure (AUC values)", "setting": "[4]", "value": "approximately 77%"}, {"measurement": "Induction of CYP1A1", "setting": "[5]", "value": "possible induction"}, {"measurement": "CYP3A4 substrate status", "setting": "[6]", "value": "CYP3A4 substrate"}, {"measurement": "CYP2C9 substrate status", "setting": "[7]", "value": "weak substrate"}, {"measurement": "ORR", "setting": "[8]; 60 subjects, single agent", "value": 10, "unit": "%"}, {"measurement": "Stable disease as best response", "setting": "[8]; % of subjects", "value": 48.3, "unit": "%"}, {"measurement": "Objective response rate (ORR)", "setting": "[8]; heavily pre-pretreated unselected NSCLC, early phase clinical trials", "value": "approximately 10%"}, {"measurement": "Median PFS", "setting": "[8]; in vivo", "value": 4.0, "unit": "months"}, {"measurement": "Dose reductions from 60 mg to 40 mg", "setting": "[9]; % of subjects", "value": 60, "unit": "%"}, {"measurement": "Further dose reductions from 40 mg to 20 mg", "setting": "[9]; % of subjects", "value": 20, "unit": "%"}, {"measurement": "Treatment discontinuations due to AEs", "setting": "[9]; incidence in each arm", "value": 10, "unit": "%"}, {"measurement": "Estimated median OS", "setting": "[10]; in vivo", "value": 9.2, "unit": "months"}, {"measurement": "ORR", "setting": "[10]; in vivo", "value": 11, "unit": "%"}, {"measurement": "PFS", "setting": "[10]; second or third line treatment", "value": 4.3, "unit": "months"}, {"measurement": "Grade 3 or 4 AE: diarrhea", "setting": "[10]; single-agent cabozantinib", "value": 8, "unit": "%"}, {"measurement": "Grade 3 or 4 AE: fatigue", "setting": "[10]; single-agent cabozantinib", "value": 15, "unit": "%"}, {"measurement": "Grade 3 or 4 AE: hypertension", "setting": "[10]; single-agent cabozantinib", "value": 25, "unit": "%"}, {"measurement": "Grade 3 or 4 AE: oral mucositis", "setting": "[10]; single-agent cabozantinib", "value": 10, "unit": "%"}, {"measurement": "Grade 3 or 4 AE: thromboembolic event", "setting": "[10]; single-agent cabozantinib", "value": 8, "unit": "%"}, {"measurement": "Proportion of subjects with a bone scan response (BSR) per IRC", "setting": "[11]; at Week 12", "value": 42, "unit": "%"}, {"measurement": "Median PFS per investigator", "setting": "[11]; exploratory endpoint", "value": 5.6, "unit": "months"}, {"measurement": "Median duration of BSR", "setting": "[11]; in vivo", "value": 5.8, "unit": "months"}, {"measurement": "Median duration of OS (Kaplan-Meier)", "setting": "[11]; in vivo", "value": 11.0, "unit": "months"}, {"measurement": "Discontinued study treatment due to an AE", "setting": "[12]; 16 subjects in each arm", "value": 20, "unit": "%"}, {"measurement": "Adverse events of ≥Grade 3 regardless of causality", "setting": "[12]; % of subjects", "value": 68, "unit": "%"}, {"measurement": "Reduction of the rate of disease progression or death", "setting": "[12]; compared with sunitinib", "value": 34, "unit": "%"}, {"measurement": "Median OS", "setting": "[12]; in vivo", "value": 26.6, "unit": "months"}, {"measurement": "Median PFS per IRC", "setting": "[12]; in vivo", "value": 8.6, "unit": "months"}, {"measurement": "Median PFS per investigator", "setting": "[12]; in vivo", "value": 8.2, "unit": "months"}, {"measurement": "≥Grade 3 AE: PPE", "setting": "[12]; in vivo", "value": 8, "unit": "%"}, {"measurement": "≥Grade 3 AE: diarrhea", "setting": "[12]; in vivo", "value": 10, "unit": "%"}, {"measurement": "≥Grade 3 AE: fatigue", "setting": "[12]; in vivo", "value": 6, "unit": "%"}, {"measurement": "≥Grade 3 AE: hematological events", "setting": "[12]; in vivo", "value": 2, "unit": "%"}, {"measurement": "≥Grade 3 AE: hypertension", "setting": "[12]; in vivo", "value": 28, "unit": "%"}, {"measurement": "Sensitivity of tumor cells to T-cell-mediated killing", "setting": "[13]", "value": "greater sensitivity"}, {"measurement": "Tumor-cell expression of major histocompatibility complex (MHC) class 1 antigen", "setting": "[13]", "value": "increased tumor-cell expression"}, {"measurement": "Risk of adverse neurological effects", "setting": "[14]", "value": "minimal risk of adverse neurological effects"}, {"measurement": "Time to steady state exposure", "setting": "[15]", "value": "approximately 2 weeks"}, {"measurement": "Number of PRs", "setting": "[16]; [26]", "value": 7}, {"measurement": "Number of complete responses (CR)", "setting": "[16]; [26]", "value": 1}, {"measurement": "ORR", "setting": "[16]; [26]", "value": 19.1, "unit": "%"}, {"measurement": "Median OS", "setting": "[16]; Cohort 1", "value": 8.0, "unit": "months"}, {"measurement": "Median PFS", "setting": "[16]; Cohort 1", "value": 3.7, "unit": "months"}, {"measurement": "Cabozantinib-related Grade 4 AE: hypomagnesemia", "setting": "[16]; all cohorts (n=67)", "value": 3, "unit": "%"}, {"measurement": "Cabozantinib-related Grade 4 AE: lipase increased", "setting": "[16]; all cohorts (n=67)", "value": 1, "unit": "%"}, {"measurement": "Grade 3 AE related to cabozantinib: hypertension", "setting": "[16]; all cohorts (n=67)", "value": 7, "unit": "%"}, {"measurement": "Grade 3 AE related to cabozantinib: hypophosphatemia", "setting": "[16]; all cohorts (n=67)", "value": 6, "unit": "%"}, {"measurement": "Grade 3 AE related to cabozantinib: fatigue", "setting": "[16]; all cohorts (n=67), most frequent (5% incidence)", "value": 9, "unit": "%"}, {"measurement": "Immunosuppressive Treg lymphocytes following treatment", "setting": "[16]; in vivo", "value": "reductions"}, {"measurement": "Subjects with a QTcF >500 ms", "setting": "[17]; cabozantinib 140 mg qd", "value": "No cabozantinib-treated subjects"}, {"measurement": "Mean increase in QTcF", "setting": "[17]; cabozantinib 140 mg qd orally, 4 weeks after initiating treatment", "value": "10 to 15", "unit": "ms"}, {"measurement": "Events of torsades de pointes", "setting": "[17]; larger safety database (approximately 5000 subjects exposed)", "value": "no events of torsades de pointes"}, {"measurement": "Overall response rate (ORR)", "setting": "[18]; RET-rearranged NSCLC", "value": 28, "unit": "%"}, {"measurement": "Grade 3 treatment-related AE: decreased platelet count", "setting": "[18]; in vivo", "value": 8, "unit": "%"}, {"measurement": "Grade 3 treatment-related AE: hypophosphataemia", "setting": "[18]; in vivo", "value": 8, "unit": "%"}, {"measurement": "Grade 3 treatment-related AE: increased ALT", "setting": "[18]; in vivo", "value": 8, "unit": "%"}, {"measurement": "Grade 3 treatment-related AE: increased AST", "setting": "[18]; in vivo", "value": 8, "unit": "%"}, {"measurement": "Grade 3 treatment-related AE: lipase elevation", "setting": "[18]; in vivo", "value": 15, "unit": "%"}, {"measurement": "Median OS", "setting": "[18]; in vivo", "value": 9.9, "unit": "months"}, {"measurement": "Median PFS", "setting": "[18]; in vivo", "value": 5.5, "unit": "months"}, {"measurement": "Treatment-related deaths", "setting": "[18]; in vivo", "value": "No treatment-related deaths"}, {"measurement": "Induction of cytochrome P450 enzymes", "setting": "[19]", "value": "unlikely to Induce"}, {"measurement": "CD14+ monocytes", "setting": "[20]", "value": "persistent decrease"}, {"measurement": "Fraction of circulating CD3+ T lymphocytes", "setting": "[20]", "value": "persistent increase"}, {"measurement": "CYP2D6, CYP2C8, CYP2C19, CYP2B6, CYP1A2 substrate status", "setting": "[21]", "value": "not a CYP2D6, CYP2C8, CYP2C19, CYP2B6, or CYP1A2 substrate"}, {"measurement": "Bound to human plasma proteins", "setting": "[22]", "value": 99.7, "unit": "%"}, {"measurement": "Effect on invasive prostate cancer", "setting": "[23]", "value": "rapid elimination of invasive prostate cancer"}, {"measurement": "Inhibition of P-glycoprotein transport activity", "setting": "[24]", "value": "potential to inhibit"}, {"measurement": "P-glycoprotein substrate status", "setting": "[24]", "value": "unlikely to be a substrate"}, {"measurement": "Increase of exposure levels by food", "setting": "[25]", "value": 57, "unit": "%"}]}
